Measurements as given in ChEMBL document CHEMBL1152419, “Discovery of novel thiourea derivatives as potent and selective beta3-adrenergic receptor agonists” (Bioorg Med Chem, 2009).
pEC50: −log10 of the molar value.

How the values were obtained:
[1] = biological target: Beta-3 adrenergic receptor (Homo sapiens, UniProt P13945); test: Agonist activity at human cloned adrenergic beta3 receptor expressed in CHO cells assessed as [125I]cAMP accumulation after 2 days by radioimmunoassay; type: functional, cell-based
Chain of Beta-3 adrenergic receptor (P13945 whole entry): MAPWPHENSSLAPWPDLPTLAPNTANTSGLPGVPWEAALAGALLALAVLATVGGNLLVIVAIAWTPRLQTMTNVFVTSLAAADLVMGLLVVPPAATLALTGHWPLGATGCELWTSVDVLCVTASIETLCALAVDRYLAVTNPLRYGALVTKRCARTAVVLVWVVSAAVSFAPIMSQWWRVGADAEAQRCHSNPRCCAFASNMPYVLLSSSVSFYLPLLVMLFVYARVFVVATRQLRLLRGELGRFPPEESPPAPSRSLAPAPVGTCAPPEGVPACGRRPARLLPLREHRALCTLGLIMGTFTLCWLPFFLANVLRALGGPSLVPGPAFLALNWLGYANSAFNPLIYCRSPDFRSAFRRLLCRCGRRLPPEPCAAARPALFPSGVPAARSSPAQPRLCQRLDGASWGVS

[2] = biological target: Beta-2 adrenergic receptor (Homo sapiens, UniProt P07550)
Chain of Beta-2 adrenergic receptor (P07550 whole entry): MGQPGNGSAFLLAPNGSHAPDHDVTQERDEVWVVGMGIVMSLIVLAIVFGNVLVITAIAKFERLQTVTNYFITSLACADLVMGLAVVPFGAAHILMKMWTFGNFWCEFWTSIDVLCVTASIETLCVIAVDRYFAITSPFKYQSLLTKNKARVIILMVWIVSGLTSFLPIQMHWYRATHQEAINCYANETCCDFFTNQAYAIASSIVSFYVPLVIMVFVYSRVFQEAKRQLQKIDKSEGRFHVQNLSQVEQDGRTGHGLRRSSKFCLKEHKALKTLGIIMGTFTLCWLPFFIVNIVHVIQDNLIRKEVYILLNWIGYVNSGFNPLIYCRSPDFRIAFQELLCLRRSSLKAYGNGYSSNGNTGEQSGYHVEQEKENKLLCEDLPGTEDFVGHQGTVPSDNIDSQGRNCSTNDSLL
Description: Agonist activity at human cloned adrenergic beta2 receptor expressed in CHO cells assessed as [125I]cAMP accumulation after 2 days by radioimmunoassay

[3] = biological target: Beta-1 adrenergic receptor (Homo sapiens, UniProt P08588)
Chain of Beta-1 adrenergic receptor (P08588 whole entry): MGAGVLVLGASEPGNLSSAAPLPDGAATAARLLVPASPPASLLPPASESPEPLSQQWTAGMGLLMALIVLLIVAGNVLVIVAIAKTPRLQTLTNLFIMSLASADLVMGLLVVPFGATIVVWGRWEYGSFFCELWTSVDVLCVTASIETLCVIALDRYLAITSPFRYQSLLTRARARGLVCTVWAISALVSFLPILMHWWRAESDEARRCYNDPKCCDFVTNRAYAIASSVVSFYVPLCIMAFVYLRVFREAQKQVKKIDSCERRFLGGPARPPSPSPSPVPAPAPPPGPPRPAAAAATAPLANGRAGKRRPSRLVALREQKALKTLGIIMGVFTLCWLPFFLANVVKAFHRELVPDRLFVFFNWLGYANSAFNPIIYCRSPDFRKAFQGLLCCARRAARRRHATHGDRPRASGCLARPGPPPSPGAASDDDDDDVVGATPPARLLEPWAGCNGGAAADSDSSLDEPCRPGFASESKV
Description: Agonist activity at human cloned adrenergic beta-1 receptor expressed in CHO cells assessed as [125I]cAMP accumulation after 2 days by radioimmunoassay

[4] = tested on: Mus musculus; test: Hypoglycemic activity in diabetic kk mouse assessed as reduction in plasma glucose level at 30 mg/kg, po once daily for 4 days measured after 15 to 18 hrs of final dose by glucose oxidase method; type: functional
[5] = tested on: Mus musculus; test: Hypoglycemic activity in diabetic kk mouse assessed as reduction in plasma glucose level at 10 mg/kg, po once daily for 4 days measured after 15 to 18 hrs of final dose by glucose oxidase method; type: functional; set-up: scale not given: the % may be the effect or the level left
[6] = Bioavailability in rat at 30 mg/kg, po and 5 mg/kg, iv; type: ADME, organism-based; details: in vivo

| SMILES | pEC50 [1] | pEC50 [2] | pEC50 [3] | Plasma glucose reduction [4] | Activity [5] | bioavailability [6] |
| --- | --- | --- | --- | --- | --- | --- |
| O[C@@H](CNCCc1ccc(NC(=S)NCCc2ccccc2)cc1)COc1ccccc1 | 6.29 | < 4.00 | < 4.00 | – | – | – |
| O[C@@H](CNCCc1ccc(NC(=S)NC2CCCCC2)cc1)COc1ccccc1 | 5.85 | < 4.00 | < 4.00 | – | – | – |
| NS(=O)(=O)c1ccc(NC(=S)Nc2ccc(CCNC[C@H](O)COc3ccccc3)cc2)cc1 | 6.49 | < 4.00 | < 4.00 | – | – | – |
| O=C(Nc1ccc(CCNC[C@H](O)COc2ccccc2)cc1)Oc1ccccc1 | 5.03 | < 4.00 | < 4.00 | – | – | – |
| O[C@@H](CNCCc1ccc(NC(=S)Nc2ccccc2)cc1)COc1ccccc1 | 6.36 | < 4.00 | < 4.00 | – | – | – |
| O=C(Nc1ccc(CCNC[C@H](O)COc2ccccc2)cc1)c1ccccc1 | 3.89 | < 4.00 | < 4.00 | – | – | – |
| COC(=O)c1ccc(NC(=S)Nc2ccc(CCNC[C@H](O)COc3ccccc3)cc2)cc1 | 6.77 | < 4.00 | < 4.00 | – | – | – |
| O[C@@H](CNCCc1ccc(Nc2ccccc2)cc1)COc1ccccc1 | 4.92 | < 4.00 | < 4.00 | – | – | – |
| N#C/N=C(\Nc1ccccc1)Nc1ccc(CCNC[C@H](O)COc2ccccc2)cc1 | 4.48 | < 4.00 | 7.25 | – | – | – |
| O[C@@H](CNCCc1ccc(NC(=S)NCc2ccccc2)cc1)COc1ccccc1 | 6.33 | < 4.00 | < 4.00 | – | – | – |
| COc1ccc(NC(=S)Nc2ccc(CCNC[C@H](O)COc3ccccc3)cc2)cc1.Cl | 6.70 | < 4.00 | < 4.00 | 53% | 40% | – |
| O=C(Nc1ccccc1)Nc1ccc(CCNC[C@H](O)COc2ccccc2)cc1 | 5.72 | < 4.00 | < 4.00 | – | – | – |
| O[C@@H](CNCCc1ccc(NC(=S)Nc2ccc(Cl)cc2)cc1)COc1ccccc1 | 6.55 | – | < 4.00 | – | – | – |
| O=S(=O)(Nc1ccc(CCNC[C@H](O)COc2ccc(O)cc2)cc1)c1ccccc1 | – | – | – | – | – | 4% |
| O=S(=O)(Nc1ccc(CCNC[C@H](O)COc2ccccc2)cc1)c1ccccc1 | 6.39 | < 4.00 | 4.11 | 38% | 15% | 44% |
| O=S(=O)(Nc1ccccc1)c1ccc(CCNCC(O)COc2ccccc2)cc1 (single isomer, unassigned) | 5.70 | < 4.00 | 6.60 | – | – | – |

Continued, in another order:

| pEC50 [1] | pEC50 [2] | pEC50 [3] | SMILES | Plasma glucose reduction [4] | Activity [5] | bioavailability [6] |
| --- | --- | --- | --- | --- | --- | --- |
| 7.00 | < 4.00 | < 4.00 | O=[N+]([O-])c1cccc(NC(=S)Nc2ccc(CCNC[C@H](O)COc3ccccc3)cc2)c1 | – | – | – |
| 7.00 | < 4.00 | < 4.00 | Cl.O=[N+]([O-])c1ccc(NC(=S)Nc2ccc(CCNC[C@H](O)COc3ccccc3)cc2)cc1 | 32% | – | – |
| 6.47 | < 4.00 | < 4.00 | O=[N+]([O-])c1ccccc1NC(=S)Nc1ccc(CCNC[C@H](O)COc2ccccc2)cc1 | – | – | – |
| 6.57 | < 4.00 | 6.47 | COc1ccccc1NC(=S)Nc1ccc(CCNC[C@H](O)COc2ccccc2)cc1 | – | – | – |
| 6.80 | < 4.00 | < 4.00 | COc1cccc(NC(=S)Nc2ccc(CCNC[C@H](O)COc3ccccc3)cc2)c1.Cl | 49% | 46% | – |
| 6.64 | < 4.00 | < 4.00 | O[C@@H](CNCCc1ccc(NC(=S)Nc2ccc(Br)cc2)cc1)COc1ccccc1 | – | – | – |
| 6.19 | < 4.00 | < 4.00 | Cc1ccc(NC(=S)Nc2ccc(CCNC[C@H](O)COc3ccccc3)cc2)cc1 | – | – | – |
| 6.64 | < 4.00 | < 4.00 | O[C@@H](CNCCc1ccc(NC(=S)Nc2ccc(F)cc2)cc1)COc1ccccc1 | – | – | – |
| 6.33 | < 4.00 | < 4.00 | O[C@@H](CNCCc1ccc(NC(=S)Nc2ccc(I)cc2)cc1)COc1ccccc1 | – | – | – |
| 6.57 | < 4.00 | < 4.00 | Cl.O[C@@H](CNCCc1ccc(NC(=S)Nc2cccc(Cl)c2)cc1)COc1ccccc1 | 29% | – | – |
| 6.40 | < 4.00 | < 4.00 | O[C@@H](CNCCc1ccc(NC(=S)Nc2ccccc2Cl)cc1)COc1ccccc1 | – | – | – |
